Data from patent US20240199542A1, “SUBSTITUTED PYRROLIDIN-2-ONES, SALTS THEREOF AND THEIR USE AS HERBICIDALLY ACTIVE SUBSTANCES” (Bayer Aktiengesellschaft, priority 2021, published 2024).

Legend:
Type in all cases: in vivo
[1] = system: Polygonum convolvulus (POLCO); experiment: Herbicidal pre-emergence action; settings: 1280 g/ha, graded after ca. 3 weeks
Outline: (§1)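 Sandy loam, seeds covered with soil → compound (WP or EC, +0.5% additive, 600 l water/ha, ≤1280 g/ha) onto covering soil → greenhouse, optimum conditions → visual % damage at ~3 wk vs untreated.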

Setaria viridis (SETVI) [2] = experiment: Herbicidal pre-emergence action; settings: 1280 g/ha, graded after ca. 3 weeks
Outline: as §1

[3] = system: Lolium multiflorum (LOLMU); experiment: Herbicidal pre-emergence action; settings: 1280 g/ha, graded after ca. 3 weeks
Outline: as §1

[4] = system: Alopecurus myosuroides (ALOMY); experiment: Herbicidal pre-emergence action; settings: 1280 g/ha, graded after ca. 3 weeks
Outline: as §1

[5] = system: Cyperus esculentus (CYPES); experiment: Herbicidal pre-emergence action; settings: 1280 g/ha, graded after ca. 3 weeks
Outline: as §1

[6] = system: Echinochloa crus-galli (ECHCG); experiment: Herbicidal pre-emergence action; settings: 1280 g/ha, graded after ca. 3 weeks
Outline: as §1

Avena fatua (AVEFA) [7] = experiment: Herbicidal pre-emergence action; settings: 1280 g/ha, graded after ca. 3 weeks
Outline: as §1

[8] = system: Lolium multiflorum (LOLMU); experiment: Herbicidal post-emergence action; settings: 1280 g/ha, assessed after ca. 3 weeks
Outline: (§2)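 Weeds grown in sandy loam in the greenhouse were sprayed post-emergence at the single-leaf stage, 2 to 3 weeks after sowing, with WP or EC formulations in water plus 0.5% additive at 600 l water/ha, at rates of 1280 g/ha or 320 g/ha. Damage was scored visually after ca. 3 weeks against untreated controls (0% = as control, 100% = plants dead).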

[9] = system: Alopecurus myosuroides (ALOMY); experiment: Herbicidal post-emergence action; settings: 1280 g/ha, assessed after ca. 3 weeks
Outline: as §2

Stellaria media (STEME) [10] = experiment: Herbicidal post-emergence action; settings: 1280 g/ha, assessed after ca. 3 weeks
Outline: as §2

[11] = system: Echinochloa crus-galli (ECHCG); experiment: Herbicidal post-emergence action; settings: 1280 g/ha, assessed after ca. 3 weeks
Outline: as §2

Veronica persica (VERPE) [12] = experiment: Herbicidal post-emergence action; settings: 1280 g/ha, assessed after ca. 3 weeks
Outline: as §2

Avena fatua (AVEFA) [13] = experiment: Herbicidal post-emergence action; settings: 1280 g/ha, assessed after ca. 3 weeks
Outline: as §2

Zea Mays (ZEAMX) [14] = experiment: Pre-emergence effects on crop plants; settings: 320 g/ha, crop plant
Description: (§3) Seeds of mono- and dicotyledonous weed plants and crop plants were sown, in plastic or organic planting pots, in sandy loam and covered with soil. The compounds according to the invention, formulated in the form of wettable powders (WP) or as emulsifiable concentrates (EC), were applied to the surface of the covering soil as aqueous suspension or emulsion, with the addition of 0.5% of an additive, at an application rate of 600 1 of water/ha (converted).
(§4) Following treatment, the pots were placed in a greenhouse and kept under optimum growth conditions for the test plants. The visual grading of the damage to the test plants was carried out after ca. 3 weeks in comparison to untreated controls (herbicidal effect in percent (%): 100% effect=plants have died off, 0% effect=as control plants).
(§5) Tables C1 to C3 below show the effects of selected compounds of the general formula (I) according to table 1 on various crop plants and an application rate corresponding to 320 g/ha or below obtained by the experimental procedure mentioned above in biology section A.

Brassica napus (BRSNW) [15] = experiment: Pre-emergence effects on crop plants; settings: 320 g/ha, crop plant
Description: as §3, §4, §5

Glycine max (GLXMA) [16] = experiment: Pre-emergence effects on crop plants; settings: 320 g/ha, crop plant
Description: as §3, §4, §5

[17] = system: Pharbitis purpurea (PHBPU); experiment: Herbicidal pre-emergence action; settings: 1280 g/ha, graded after ca. 3 weeks
Outline: as §1

[18] = system: Digitaria sanguinalis (DIGSA); experiment: Herbicidal pre-emergence action; settings: 320 g/ha, graded after ca. 3 weeks
Outline: as §1

Stellaria media (STEME) [19] = experiment: Herbicidal pre-emergence action; settings: 1280 g/ha, graded after ca. 3 weeks
Outline: as §1

Veronica persica (VERPE) [20] = experiment: Herbicidal pre-emergence action; settings: 1280 g/ha, graded after ca. 3 weeks
Outline: as §1

Viola tricolor (VIOTR) [21] = experiment: Herbicidal pre-emergence action; settings: graded after ca. 3 weeks
Outline: as §1

[22] = system: Digitaria sanguinalis (DIGSA); experiment: Herbicidal post-emergence action; settings: 320 g/ha, assessed after ca. 3 weeks
Outline: as §2

Lolium rigidum (LOLRI) = experiment: Herbicidal post-emergence action; settings: 320 g/ha, assessed after ca. 3 weeks
Outline: as §2

Zea Mays (ZEAMX) [23] = experiment: Post-emergence effects on crop plants; settings: 320 g/ha, crop plant
Outline: (§6)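 Greenhouse-grown plants in sandy loam sprayed post-emergence at single-leaf stage (2–3 weeks after sowing) with WP or EC formulations plus 0.5% additive, 600 l water/ha, at rates of 320 g/ha or below. Visual damage scored ca. 3 weeks later versus untreated controls, 0% (as control) to 100% (dead).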

Brassica napus (BRSNW) [24] = experiment: Post-emergence effects on crop plants; settings: application rate 320 g/ha, crop plant Brassica napus (BRSNW)
Outline: as §6

Glycine max (GLXMA) [25] = experiment: Post-emergence effects on crop plants; settings: 320 g/ha, crop plant
Outline: as §6

[26] = system: Matricaria inodora (MATIN); experiment: Herbicidal pre-emergence action; settings: 1280 g/ha, graded after ca. 3 weeks
Outline: as §1

[27] = system: Amaranthus retroflexus (AMARE); experiment: Herbicidal pre-emergence action; settings: 1280 g/ha, graded after ca. 3 weeks
Outline: as §1

Setaria viridis (SETVI) [28] = experiment: Herbicidal post-emergence action; settings: 1280 g/ha, assessed after ca. 3 weeks
Outline: as §2

[29] = system: Polygonum convolvulus (POLCO); experiment: Herbicidal post-emergence action; settings: 1280 g/ha, assessed after ca. 3 weeks
Outline: as §2

[30] = system: Amaranthus retroflexus (AMARE); experiment: Herbicidal post-emergence action; settings: 1280 g/ha, assessed after ca. 3 weeks
Outline: as §2

Viola tricolor (VIOTR) [31] = experiment: Herbicidal post-emergence action; settings: 1280 g/ha, assessed after ca. 3 weeks
Outline: as §2

[32] = system: Pharbitis purpurea (PHBPU); experiment: Herbicidal post-emergence action; settings: 1280 g/ha, assessed after ca. 3 weeks
Outline: as §2

[33] = system: Matricaria inodora (MATIN); experiment: Herbicidal post-emergence action; settings: 1280 g/ha, assessed after ca. 3 weeks
Outline: as §2

| Compound | Pre-emergence activity against POLCO [1] [%] | Pre-emergence activity against SETVI (Setaria viridis (SETVI) [2]) [%] | Pre-emergence activity against ALOMY [4] [%] | Pre-emergence activity against CYPES [5] [%] | Pre-emergence activity against ECHCG [6] [%] | Pre-emergence activity against AVEFA (Avena fatua (AVEFA) [7]) [%] | Post-emergence activity against ALOMY [9] [%] | Post-emergence activity against STEME (Stellaria media (STEME) [10]) [%] | Post-emergence activity against ECHCG [11] [%] | Post-emergence activity against AVEFA (Avena fatua (AVEFA) [13]) [%] | also measured |
| --- | --- | --- | --- | --- | --- | --- | --- | --- | --- | --- | --- |
| Cn1nnnc1NC(=O)CC1CCC(=O)N1Cc1cccc(F)c1F (racemic) [Example I-004] | 80 | 80 | 90 | 100 | 80 | 100 | 90 | 80 | 100 | 100 | Pre-emergence activity against LOLMU [3]: 90%; Post-emergence activity against LOLMU [8]: 90%; Post-emergence activity against VERPE (Veronica persica (VERPE) [12]): 80% |
| O=C(CC1CCC(=O)N1Cc1cccc(F)c1F)OCCOc1ccc(F)cc1 (racemic) [Example I-007] | 90 | 90 | 90 | 90 | 90 | 100 | 80 |  | 90 | 90 | pre-emergence activity against ZEAMX (crop damage) (Zea Mays (ZEAMX) [14]): 0%; pre-emergence activity against BRSNW (crop damage) (Brassica napus (BRSNW) [15]): 0%; pre-emergence activity against GLXMA (crop damage) (Glycine max (GLXMA) [16]): 0%; Pre-emergence activity against PHBPU [17]: 80%; Pre-emergence activity against DIGSA [18]: 90%; Pre-emergence activity against LOLMU [3]: 90%; Pre-emergence activity against STEME (Stellaria media (STEME) [19]): 80%; Pre-emergence activity against VERPE (Veronica persica (VERPE) [20]): 90%; Pre-emergence activity against VIOTR (Viola tricolor (VIOTR) [21]; 320 g/ha): 90%; Post-emergence activity against DIGSA [22]: 90%; Post-emergence activity against LOLRI (Lolium rigidum (LOLRI)): 80%; post-emergence activity against ZEAMX (crop damage) (Zea Mays (ZEAMX) [23]): 0%; post-emergence activity against BRSNW (Brassica napus (BRSNW) [24]): 0%; post-emergence activity against GLXMA (crop damage) (Glycine max (GLXMA) [25]): 0% |
| O=C(CC1CCC(=O)N1Cc1cccc(F)c1F)OCCOc1ccc(Cl)cc1 (racemic) [Example I-033] |  | 80 | 90 | 80 | 80 | 100 | 80 |  | 80 |  | Pre-emergence activity against PHBPU [17]: 80%; Pre-emergence activity against MATIN [26]: 80%; Pre-emergence activity against VERPE (Veronica persica (VERPE) [20]): 90% |
| O=C(CC1CCC(=O)N1Cc1cccc(F)c1F)NCc1ccccc1 (racemic) [Example I-055] |  |  |  | 100 |  | 80 |  |  |  |  | Pre-emergence activity against AMARE [27]: 100% |
| CC1(C)CC(=O)C(C(=O)CC2CCC(=O)N2Cc2cccc(F)c2F)C(=O)C1 (racemic) [Example I-179] |  |  |  |  |  | 90 |  | 80 | 90 | 90 | Pre-emergence activity against STEME (Stellaria media (STEME) [19]): 80%; Post-emergence activity against SETVI (Setaria viridis (SETVI) [28]): 80% |
| CC1CC(=O)C(C(=O)CC2CCC(=O)N2Cc2cccc(F)c2F)C(=O)C1 (racemic) [Example I-180] |  |  | 80 |  | 90 | 90 |  | 90 | 90 | 80 | Post-emergence activity against POLCO [29]: 80%; Post-emergence activity against AMARE [30]: 90%; Post-emergence activity against VIOTR (Viola tricolor (VIOTR) [31]): 80% |
| CC1(C)C(=O)C(C(=O)CC2CCC(=O)N2Cc2cccc(F)c2F)C(=O)C(C)(C)C1=O (racemic) [Example I-184] |  |  |  |  |  |  | 80 | 80 |  | 80 | Pre-emergence activity against MATIN [26]: 80%; Post-emergence activity against AMARE [30]: 80%; Post-emergence activity against PHBPU [32]: 90%; Post-emergence activity against MATIN [33]: 90%; Post-emergence activity against LOLMU [8]: 80%; Post-emergence activity against VERPE (Veronica persica (VERPE) [12]): 80% |
| O=C(O)CC1CCC(=O)N1Cc1cccc(F)c1F (single isomer, unassigned) [Example I-065] | 100 |  |  |  |  | 80 |  |  |  | 90 | Pre-emergence activity against VIOTR (Viola tricolor (VIOTR) [21]; 1280 g/ha): 100%; Post-emergence activity against PHBPU [32]: 80% |
